Assay results from patent publication US11532406B2, “High specific activity preparation of F-18 tetrafluoroborate” (Mayo Foundation for Medical Education and Research, priority 2016, dated 2022).
Several values for one entry are separate records, joined by “and”; a condition that tells them apart may be missing. Identical values can stand only once. Entries after “also recorded” stand apart in the source; their conditions may differ. Marks after values point to notes of the source that are not given here.

Columns and labels:
[1] = Estimated plasma / in vivo concentration of TFB after ~400 MBq ^18F-TFB; parameters: species or system human; settings: specific activity of 8 GBq/μmol, ~400 MBq administered dose
[2] = PET/CT imaging of ^18F-TFB in healthy participants (pharmacokinetics, biodistribution); type: in vivo, human
Excerpt: Approval of the study was obtained from the Mayo Clinic Institutional Review Board and all participants provided informed consent. Four male (36±14 y) and four female (35±8 y) healthy volunteers were enrolled in the study. Participants were excluded that had previous diagnosis of cancer or clinically significant cardiovascular, renal, pulmonary, metabolic, and endocrine (thyroid) diseases. Participants were not required to fast prior to the imaging study but instructed to remain well-hydrated.
The imaging protocol is illustrated in FIG. 13. After voiding of the bladder, participants were positioned in a GE 690XT PET/CT scanner (GE HealthCare, Waukesha, Wis.) in a supine position with the heart in the center of the axial field of view. Intravenous catheters were placed in both arms for radiotracer injection and blood sampling. Computed tomography scans of the thorax were initially acquired in the preparation for a dynamic PET data acquisition over the heart for the first 45 min following commencement of radiotracer administration. ^18F-TFB (333-407 MBq) was administered over 1 minute into one of the catheters. The frame sequence for initial dynamic PET acquisition was 15×4, 8×15, 4×30, and 8×300 seconds. Following the dynamic heart scan, the participants were allowed a break from the scanner, during which time voided their bladders. Two additional PET/CT scans, from the vertex of the skull to mid-thigh, were performed at 2 hours and 3.5 hours respectively. The last PET/CT scan was completed ˜4 h post-injection.
All PET scans images were reconstructed using 3D OSEM and time-of-flight reconstruction. Volumes of interest (VOI's) of organs were drawn using PMOD software (Ver. 3.5). Standardized Uptake Values (SUVs) normalized to body weight were then calculated for each VOI. Time-activity curves (TACs) were evaluated from the initial dynamic scan over the heart for left-ventricular blood pool, lung and liver regions.

[3] = Measurements in venous blood and urine samples, HPLC metabolite analysis; type: in vivo, human; settings: for Urine (% Dose), Accumulative: end of study (~250 min)
Protocol: Urine was collected after each PET/CT scan (approximately 55, 160, 250 min), and venous blood samples were collected at 40, 145 and 235 min, post-injection, as shown in FIG. 13. Blood samples (3-4 mL) were collected in heparinized tubes and placed on ice. The blood samples were centrifuged at 3000 g for 5 min to obtain plasma. Urine was measured for urine volume and radioactivity concentration as measured in a calibrated gamma counter. Analysis for metabolites in plasma and urine was performed by ion-chromatography HPLC, allowing estimation of the fraction of radioactivity as nonmetabolized ^18F-TFB.

[4] = as above; type: in vivo, human; settings: all urine samples, approximately 50, 160, 250 min
[5] = representative participant, post-administration

estimated in vivo concentration of TFB [1]: ~0.02 µM
PET/CT-derived distribution (SUV), Bone ([2]; females, 2 h post-injection): 0.74 ± 0.20 SUV
PET/CT-derived distribution (SUV), Brain ([2]; females, 2 h post-injection): 0.42 ± 0.15 SUV
PET/CT-derived distribution (SUV), Breast ([2]; females, 2 h post-injection): 2.8 ± 0.4 SUV
PET/CT-derived distribution (SUV), Gallbladder ([2]; females, 2 h post-injection): 3.7 ± 1.0 SUV
PET/CT-derived distribution (SUV), Intestines ([2]; females, 2 h post-injection): 5.0 ± 2.7 SUV
PET/CT-derived distribution (SUV), Kidney ([2]; females, 2 h post-injection): 5.6 ± 0.7 SUV
PET/CT-derived distribution (SUV), Liver ([2]; females, 2 h post-injection): 2.7 ± 0.5 SUV
PET/CT-derived distribution (SUV), Lung ([2]; females, 2 h post-injection): 1.2 ± 0.4 SUV
PET/CT-derived distribution (SUV), Muscle ([2]; females, 2 h post-injection): 0.65 ± 0.35 SUV
PET/CT-derived distribution (SUV), Myocardium ([2]; females, 2 h post-injection): 2.8 ± 0.5 SUV
PET/CT-derived distribution (SUV), Pancreas ([2]; females, 2 h post-injection): 3.1 ± 1.7 SUV
PET/CT-derived distribution (SUV), Parotid ([2]; females, 2 h post-injection): 20 ± 11 SUV
PET/CT-derived distribution (SUV), Spleen ([2]; females, 2 h post-injection): 4.3 ± 1.0 SUV
PET/CT-derived distribution (SUV), Stomach ([2]; females, 2 h post-injection): 72 ± 10 SUV
PET/CT-derived distribution (SUV), Thyroid ([2]; females, 2 h post-injection): 50 ± 11 SUV
PET/CT-derived distribution (SUV), Bone ([2]; females, 3.5 h post-injection): 1.3±0.9 SUV
PET/CT-derived distribution (SUV), Brain ([2]; females, 3.5 h post-injection): 0.61 ± 0.34 SUV
PET/CT-derived distribution (SUV), Breast ([2]; females, 3.5 h post-injection): 3.9 ± 1.4 SUV
PET/CT-derived distribution (SUV), Gallbladder ([2]; females, 3.5 h post-injection): 5.0 ± 1.6 SUV
PET/CT-derived distribution (SUV), Intestines ([2]; females, 3.5 h post-injection): 6.0 ± 3.1 SUV
PET/CT-derived distribution (SUV), Kidney ([2]; females, 3.5 h post-injection): 6.3 ± 2.4 SUV
PET/CT-derived distribution (SUV), Liver ([2]; females, 3.5 h post-injection): 3.5 ± 1.6 SUV
PET/CT-derived distribution (SUV), Lung ([2]; females, 3.5 h post-injection): 1.5 ± 0.8 SUV
PET/CT-derived distribution (SUV), Muscle ([2]; females, 3.5 h post-injection): 0.78 ± 0.54 SUV
PET/CT-derived distribution (SUV), Myocardium ([2]; females, 3.5 h post-injection): 3.8 ± 1.8 SUV
PET/CT-derived distribution (SUV), Pancreas ([2]; females, 3.5 h post-injection): 3.0 ± 1.2 SUV
PET/CT-derived distribution (SUV), Parotid ([2]; females, 3.5 h post-injection): 25 ± 15 SUV
PET/CT-derived distribution (SUV), Spleen ([2]; females, 3.5 h post-injection): 5.5 ± 2.8 SUV
PET/CT-derived distribution (SUV), Stomach ([2]; females, 3.5 h post-injection): 51 ± 18 SUV
PET/CT-derived distribution (SUV), Thyroid ([2]; females, 3.5 h post-injection): 58 ± 12 SUV
blood clearance of radioactivity (left-ventricular blood pool time-activity curve) ([2]; healthy participants): multiphasic; also recorded: multi-phasic
urinary clearance ([2]; healthy participants): prominent
PET/CT-derived distribution (SUV), Bone ([2]; males, 2 h post-injection): 0.80 ± 0.33 SUV
PET/CT-derived distribution (SUV), Brain ([2]; males, 2 h post-injection): 0.39 ± 0.14 SUV
PET/CT-derived distribution (SUV), Gallbladder ([2]; males, 2 h post-injection): 2.7 ± 1.5 SUV
PET/CT-derived distribution (SUV), Intestines ([2]; males, 2 h post-injection): 2.9 ± 1.0 SUV
PET/CT-derived distribution (SUV), Kidney ([2]; males, 2 h post-injection): 7.0 ± 2.5 SUV
PET/CT-derived distribution (SUV), Liver ([2]; males, 2 h post-injection): 2.3 ± 1.0 SUV
PET/CT-derived distribution (SUV), Lung ([2]; males, 2 h post-injection): 1.0 ± 0.4 SUV
PET/CT-derived distribution (SUV), Muscle ([2]; males, 2 h post-injection): 0.71 ± 0.31 SUV
PET/CT-derived distribution (SUV), Myocardium ([2]; males, 2 h post-injection): 3.2 ± 0.9 SUV
PET/CT-derived distribution (SUV), Pancreas ([2]; males, 2 h post-injection): 3.4 ± 0.7 SUV
PET/CT-derived distribution (SUV), Parotid ([2]; males, 2 h post-injection): 11 ± 9 SUV
PET/CT-derived distribution (SUV), Spleen ([2]; males, 2 h post-injection): 4.1 ± 1.2 SUV
PET/CT-derived distribution (SUV), Stomach ([2]; males, 2 h post-injection): 33 ± 15 SUV
PET/CT-derived distribution (SUV), Thyroid ([2]; males, 2 h post-injection): 55 ± 31 SUV
PET/CT-derived distribution (SUV), Bone ([2]; males, 3.5 h post-injection): 1.4±0.5 SUV
PET/CT-derived distribution (SUV), Brain ([2]; males, 3.5 h post-injection): 0.74 ± 0.26 SUV
PET/CT-derived distribution (SUV), Gallbladder ([2]; males, 3.5 h post-injection): 4.2 ± 1.7 SUV
PET/CT-derived distribution (SUV), Intestines ([2]; males, 3.5 h post-injection): 4.4 ± 1.0 SUV
PET/CT-derived distribution (SUV), Kidney ([2]; males, 3.5 h post-injection): 11 ± 3 SUV
PET/CT-derived distribution (SUV), Liver ([2]; males, 3.5 h post-injection): 3.6 ± 1.2 SUV
PET/CT-derived distribution (SUV), Lung ([2]; males, 3.5 h post-injection): 1.7 ± 0.6 SUV
PET/CT-derived distribution (SUV), Muscle ([2]; males, 3.5 h post-injection): 0.96 ± 0.31 SUV
PET/CT-derived distribution (SUV), Myocardium ([2]; males, 3.5 h post-injection): 5.0 ± 0.9 SUV
PET/CT-derived distribution (SUV), Pancreas ([2]; males, 3.5 h post-injection): 6.2 ± 2.1 SUV
PET/CT-derived distribution (SUV), Parotid ([2]; males, 3.5 h post-injection): 16 ± 13 SUV
PET/CT-derived distribution (SUV), Spleen ([2]; males, 3.5 h post-injection): 6.3 ± 1.1 SUV
PET/CT-derived distribution (SUV), Stomach ([2]; males, 3.5 h post-injection): 70 ± 32 SUV
PET/CT-derived distribution (SUV), Thyroid ([2]; males, 3.5 h post-injection): 82 ± 42 SUV
time of peak radioactivity concentration, LVBP [2, 5]: ~1 min
time of peak radioactivity concentration, liver [2, 5]: ~2 min
time of peak radioactivity concentration, lung [2, 5]: ~1 min
% Intact ^18F-TFB, Plasma ([3]; females, 40 min): 97 ± 3^c %
Plasma (SUV) ([3]; females, 40 min): 3.8 ± 1.0 SUV
Whole blood (SUV) ([3]; females, 40 min): 3.1 ± 0.9 SUV
Urine (% Dose) ([3]; females, 40 min column (urine collected ~10 min later)): 16 ± 3 % Dose
% Intact ^18F-TFB, Urine ([3]; females, 40 min column (urine ~10 min later)): 98 ± 1%
Plasma (SUV) ([3]; females, 145 min): 2.1 ± 0.5 SUV
Whole blood (SUV) ([3]; females, 145 min): 1.7 ± 0.4 SUV
Urine (% Dose) ([3]; females, 145 min column (urine collected ~10 min later)): 18 ± 3^ % Dose
% Intact ^18F-TFB, Urine ([3]; females, 145 min column (urine ~10 min later)): 98 ± 1%
Plasma (SUV) ([3]; females, 235 min): 1.7 ± 0.5 SUV
Whole blood (SUV) ([3]; females, 235 min): 1.4 ± 0.4 SUV
Urine (% Dose) ([3]; females, 235 min column (urine collected ~10 min later)): 12 ± 2 % Dose
% Intact ^18F-TFB, Urine ([3]; females, 235 min column (urine ~10 min later)): 97 ± 2%
Urine (% Dose), Accumulative ([3]; females): 47±7 % Dose
% Intact ^18F-TFB, Plasma ([3]; males, 40 min): 97 ± 2%
Plasma (SUV) ([3]; males, 40 min): 3.8 ± 0.2 SUV
Whole blood (SUV) ([3]; males, 40 min): 3.0 ± 0.2 SUV
Urine (% Dose) ([3]; males, 40 min column (urine collected ~10 min later)): 15 ± 2^b % Dose
% Intact ^18F-TFB, Urine ([3]; males, 40 min column (urine ~10 min later)): 96 ± 2%
Plasma (SUV) ([3]; males, 145 min): 2.8 ± 0.3 SUV
Whole blood (SUV) ([3]; males, 145 min): 2.1 ± 0.2 SUV
Urine (% Dose) ([3]; males, 145 min column (urine collected ~10 min later)): 13 ± 3 % Dose
% Intact ^18F-TFB, Urine ([3]; males, 145 min column (urine ~10 min later)): 97 ± 2%
Plasma (SUV) ([3]; males, 235 min): 2.0 ± 0.1 SUV
Whole blood (SUV) ([3]; males, 235 min): 1.7 ± 0.2 SUV
Urine (% Dose) ([3]; males, 235 min column (urine collected ~10 min later)): 10 ± 2^b % Dose
% Intact ^18F-TFB, Urine ([3]; males, 235 min column (urine ~10 min later)): 98 ± 1%
Urine (% Dose), Accumulative ([3]; males): 40±4 % Dose and 40 ± 4^b % Dose
^18F-labeled metabolites in blood and urine (HPLC) ([3]; over the length of the study (4 h)): insignificant
radioactivity as metabolically intact ^18F-TFB in plasma ([3]; plasma samples at 40 min p.i.): > 97%
radioactivity in the form of ^18F-TFB in urine [4]: > 97%
Compound: F[B-](F)(F)[18F] [^18F-TFB, ^18F-tetrafluoroborate]
uptake in thyroid, stomach, salivary glands and kidney ([2]; whole-body PET/CT at 2 h post-injection): Robust uptake; also recorded: high uptakes
